Reference: US12351571B2, “Substituted quinoxaline compounds as inhibitors of FGFR tyrosine kinases” (ARRAY BIOPHARMA INC., priority 2018, dated 2025)

How the values were obtained:
FGFR3 [1] = target: T1, FGFR3 (Homo sapiens (Human), UniProt P22607); assay: FGFR Enzyme Activity Assay (LanthaScreen TR-FRET), FGFR3; format: biochemical; conditions: 25 μM ATP, 10 minute incubation; read-out: FGFR3 Enz FRET IC50
Target sequence in this assay (P22607 397-806): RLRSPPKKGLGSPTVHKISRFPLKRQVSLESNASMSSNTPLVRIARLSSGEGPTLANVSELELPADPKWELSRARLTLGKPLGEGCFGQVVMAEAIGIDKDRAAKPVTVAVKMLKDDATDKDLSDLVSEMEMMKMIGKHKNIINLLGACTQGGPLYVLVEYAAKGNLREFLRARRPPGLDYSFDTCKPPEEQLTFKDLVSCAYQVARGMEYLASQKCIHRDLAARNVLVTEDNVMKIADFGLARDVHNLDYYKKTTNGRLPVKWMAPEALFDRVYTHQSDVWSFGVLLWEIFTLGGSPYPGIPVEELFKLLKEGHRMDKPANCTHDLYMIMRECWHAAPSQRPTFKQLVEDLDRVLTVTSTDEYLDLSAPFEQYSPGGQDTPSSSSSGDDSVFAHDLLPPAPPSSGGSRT

FGFR1 = FGFR1 (Homo sapiens (Human), UniProt P11362); assay: LC/MS FGFR1 kobs assay (covalent modification); format: biochemical; conditions: 500 nM FGFR1, 3 μM compound
[2] = target: recombinant human FGFR1 catalytic domain (Homo sapiens (Human), UniProt P11362); assay: FGFR Enzyme Activity Assay (LanthaScreen TR-FRET), FGFR1; format: biochemical; conditions: 15 μM ATP, 20 minutes incubation; read-out: FGFR1 Enz FRET IC50
human wild type FGFR3 = human wild type FGFR3 (Homo sapiens (Human), UniProt P22607); assay: FGFR3 pERK Cell Assay; format: cell-based; conditions: HEK-293 cells, 1 hour compound, 100 ng/ml human FGF-acidic; maximum concentration 5 μM
FGFR3 [3] = target: T1, FGFR3; assay: LC/MS FGFR3 kobs assay (covalent modification); format: biochemical; conditions: 500 nM FGFR3, 3 μM compound
Target sequence in this assay (P22607 449-759): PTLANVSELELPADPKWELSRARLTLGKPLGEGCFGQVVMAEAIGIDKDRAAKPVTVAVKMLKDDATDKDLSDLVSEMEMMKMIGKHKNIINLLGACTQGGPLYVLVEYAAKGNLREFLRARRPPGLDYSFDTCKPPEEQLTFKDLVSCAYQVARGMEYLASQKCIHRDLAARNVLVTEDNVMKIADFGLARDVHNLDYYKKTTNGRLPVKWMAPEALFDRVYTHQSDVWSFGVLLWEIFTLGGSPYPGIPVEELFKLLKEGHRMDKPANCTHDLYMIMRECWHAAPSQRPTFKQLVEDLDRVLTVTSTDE

human wild type FGFR3, sequence (P22607 23-806): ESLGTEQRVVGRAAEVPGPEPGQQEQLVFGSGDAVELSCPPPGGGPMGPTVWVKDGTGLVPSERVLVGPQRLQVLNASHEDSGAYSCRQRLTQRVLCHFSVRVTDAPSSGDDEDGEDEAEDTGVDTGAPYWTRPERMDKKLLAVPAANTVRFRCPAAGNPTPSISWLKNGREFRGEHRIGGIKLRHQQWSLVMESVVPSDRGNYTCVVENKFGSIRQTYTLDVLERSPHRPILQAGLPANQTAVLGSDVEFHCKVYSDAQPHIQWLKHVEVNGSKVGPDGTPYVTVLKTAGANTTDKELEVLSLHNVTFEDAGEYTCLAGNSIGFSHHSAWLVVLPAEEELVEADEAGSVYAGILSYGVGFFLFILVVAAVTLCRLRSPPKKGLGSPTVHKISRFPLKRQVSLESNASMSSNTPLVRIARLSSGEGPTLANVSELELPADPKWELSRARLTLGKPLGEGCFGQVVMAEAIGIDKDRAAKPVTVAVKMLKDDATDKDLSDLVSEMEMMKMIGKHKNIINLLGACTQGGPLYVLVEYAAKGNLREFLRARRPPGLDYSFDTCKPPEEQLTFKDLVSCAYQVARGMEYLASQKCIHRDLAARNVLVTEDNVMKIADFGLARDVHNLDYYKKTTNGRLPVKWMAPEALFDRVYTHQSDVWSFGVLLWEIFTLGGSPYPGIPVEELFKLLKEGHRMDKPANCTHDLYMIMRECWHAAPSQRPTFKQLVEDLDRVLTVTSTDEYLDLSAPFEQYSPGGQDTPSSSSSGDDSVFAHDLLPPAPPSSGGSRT
recombinant human FGFR1 catalytic domain, sequence (P11362 other isoform, or with tags, fused parts or gaps): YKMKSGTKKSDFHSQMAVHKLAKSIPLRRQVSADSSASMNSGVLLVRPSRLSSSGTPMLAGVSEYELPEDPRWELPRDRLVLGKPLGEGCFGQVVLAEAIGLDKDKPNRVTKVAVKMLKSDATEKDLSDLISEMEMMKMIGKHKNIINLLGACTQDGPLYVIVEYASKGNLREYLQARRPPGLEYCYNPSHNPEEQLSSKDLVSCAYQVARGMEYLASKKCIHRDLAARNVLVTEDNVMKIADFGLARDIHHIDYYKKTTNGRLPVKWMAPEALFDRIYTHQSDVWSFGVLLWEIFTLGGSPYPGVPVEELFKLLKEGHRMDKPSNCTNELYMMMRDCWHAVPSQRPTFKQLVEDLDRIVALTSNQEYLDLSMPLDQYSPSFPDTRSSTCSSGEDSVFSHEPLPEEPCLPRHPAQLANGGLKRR
FGFR1, sequence (P11362 458-765): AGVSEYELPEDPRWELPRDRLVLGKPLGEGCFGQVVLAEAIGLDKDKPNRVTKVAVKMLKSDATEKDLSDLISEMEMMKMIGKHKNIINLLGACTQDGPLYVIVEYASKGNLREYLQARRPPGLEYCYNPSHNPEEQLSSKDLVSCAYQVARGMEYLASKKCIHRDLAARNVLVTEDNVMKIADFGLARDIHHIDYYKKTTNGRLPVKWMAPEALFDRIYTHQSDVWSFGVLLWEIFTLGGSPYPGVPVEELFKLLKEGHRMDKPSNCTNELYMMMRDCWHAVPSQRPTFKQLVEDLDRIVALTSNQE

| IC50 (FGFR3 [1]) [nM] | FGFR1 Enz kobs (FGFR1) [min⁻¹] | IC50 [2] [nM] | IC50 (human wild type FGFR3) [nM] | FGFR3 Enz kobs (FGFR3 [3]) [min⁻¹] | Structure (SMILES) |
| --- | --- | --- | --- | --- | --- |
| 79 | 0.00673 | 339 | 113 | 0.05725 | COc1cc(Nc2ccc3ncc(-c4cn(C5CCN(C(=O)C6(F)CN(C(=O)/C=C/CN(C)C)C6)CC5)nc4C)nc3c2)cc(OC)c1 [Example 22, (E)-1-(3-(4-(4-(7-((3,5-dimethoxyphenyl)amino)-quinoxalin-2-yl)-3-methyl-1H-pyrazol-1-yl)-piperidine-1-carbonyl)-3-fluoroazetidin-1-yl)-4-(dimethylamino)but-2-en-1-one] |
| 972 | 0.00386 | 5000 | 699 | 0.07588 | COc1cc(Nc2ccc3ncc(-c4c(C)nn(C5CCN(C(=O)C6(F)CN(C(=O)/C=C/CN(C)C)C6)CC5)c4C)nc3c2)cc(OC)c1 [Example 23, (E)-1-(3-(4-(4-(7-((3,5-dimethoxyphenyl)amino)-quinoxalin-2-yl)-3,5-dimethyl-1H-pyrazol-1-yl)piperidine-1-carbonyl)-3-fluoroazetidin-1-yl)-4-(dimethylamino)but-2-en-1-one] |
| 24 | 0.00223 | 229 | 19 | 0.01322 | C=CC(=O)N1CC(OC)(C(=O)N2CCC(n3cc(-c4cnc5ccc(Nc6cc(OC)cc(OC)c6)cc5n4)cn3)CC2)C1 [Example 24, 1-(3-(4-(4-(7-((3,5-dimethoxyphenyl)amino)-quinoxalin-2-yl)-1H-pyrazol-1-yl)piperidine-1-carbonyl)-3-methoxy-azetidin-1-yl)prop-2-en-1-one] |
| 14 | 0.00288 | 118 | 153 | 0.01414 | C=CC(=O)N1CC(O)(C(=O)N2CCC(n3cc(-c4cnc5ccc(Nc6cc(OC)cc(OC)c6)cc5n4)cn3)CC2)C1 [Example 26, 1-(3-(4-(4-(7-((3,5-dimethoxyphenyl)amino)quinoxalin-2-yl)-1H-pyrazol-1-yl)piperidine-1-carbonyl)-3-hydroxyazetidin-1-yl)prop-2-en-1-one] |
| 2 | 0.00264 | 10 | 12 | 0.00987 | C=CC(=O)N1CC(O)(C(=O)N2CCC(n3cc(-c4cnc5ccc(N(C)c6cc(OC)cc(OC)c6)cc5n4)cn3)CC2)C1 [Example 27, 1-(3-(4-(4-(7-((3,5-dimethoxyphenyl)(methyl)amino)quinoxalin-2-yl)-1H-pyrazol-1-yl)piperidine-1-carbonyl)-3-hydroxyazetidin-1-yl)prop-2-en-1-one] |
| 6 | 0.01569 | 21 | 8 | 0.078 | C#CCN(c1cc(OC)cc(OC)c1)c1ccc2ncc(-c3cnn(C4CCN(C(=O)C5(F)CN(C(=O)/C=C/CN(C)C)C5)CC4)c3)nc2c1 [Example 28, (E)-1-(3-(4-(4-(7-((3,5-dimethoxyphenyl)(prop-2-yn-1-yl)amino)quinoxalin-2-yl)-1H-pyrazol-1-yl)piperidine-1-carbonyl)-3-fluoroazetidin-1-yl)-4-(dimethylamino)but-2-en-1-one] |
| 40 | 0.0025 | 414 | 25 | 0.01671 | C=CC(=O)N1CC(CN2CCC(n3cc(-c4cnc5ccc(Nc6cc(OC)cc(OC)c6)cc5n4)cn3)CC2)(OC)C1 [Example 29, 1-(3-((4-(4-(7-((3,5-dimethoxyphenyl)amino)quinoxalin-2-yl)-1H-pyrazol-1-yl)piperidin-1-yl)methyl)-3-methoxyazetidin-1-yl)prop-2-en-1-one] |
| 26 | 0.00172 | 147 | 24 | 0.01591 | C=CC(=O)N1CC(CN2CCC(n3cc(-c4cnc5ccc(Nc6cc(OC)cc(OC)c6)cc5n4)cn3)CC2)C1 [Example 30, 1-(3-((4-(4-(7-((3,5-dimethoxyphenyl)amino)quinoxalin-2-yl)-1H-pyrazol-1-yl)piperidin-1-yl)methyl)azetidin-1-yl)prop-2-en-1-one] |
